Test results from patent publication US9278912B2, “C13-hydroxy derivatives of oleanolic acid and methods of use thereof” (priority 2012, dated 2016).
pIC50: −log10 of the molar value.

Tested on: IFNγ-induced NO production in RAW264.7 mouse macrophages
Experiment: Suppression of IFNγ-induced NO production (Nitric Oxide Production and Cell Viability Assay)
Format: cell-based
Conditions: RAW264.7 cells, 2 h pretreatment, then IFNγ 24 h, Griess reagent, normalized to cell viability (WST-1)
Protocol: Assay results for the suppression of IFNγ-induced NO production are shown for several of the compounds of the present invention in Table 1 below. In the right-hand column of this table under the RAW264.7 heading, the results are compared to those of bardoxolone methyl (RTA 402, CDDO-Me). Details regarding this assay are provided in the Examples section below. Nitric Oxide Production and Cell Viability Assay. […] On the next day, cells were pretreated with DMSO or drug (0-200 nM dose range) for 2 hours, and then treated with recombinant mouse IFNγ (R&D Systems) for 24 hours. Nitric Oxide concentration in media was determined using the Griess reagent system (Promega). Cell viability was determined using WST-1 reagent (Roche). IC50 values were determined based on the suppression of IFNγ induced Nitric Oxide production normalized to cell viability.

Question: COC(=O)[C@]12CCC(C)(C)C[C@H]1[C@@]1(O)C(=O)C=C3[C@@]4(C)C=C(C#N)C(=O)C(C)(C)[C@@H]4CC[C@@]3(C)[C@]1(C)CC2 [TX63421] was tested. Which pIC50 did it give?
Answer: Its pIC50 is 8.64.

Question: With CCOC(=O)[C@]12CCC(C)(C)C[C@H]1[C@@]1(O)C(=O)C=C3[C@@]4(C)C=C(C#N)C(=O)C(C)(C)[C@@H]4CC[C@@]3(C)[C@]1(C)CC2 [TX63469] as the compound, how does the pIC50 read?
Answer: The pIC50 was 8.66.

Question: CCCCC1O[C@]23C(=O)C=C4[C@@]5(C)C=C(C#N)C(=O)C(C)(C)[C@@H]5CC[C@@]4(C)[C@]2(C)CC[C@]12CCC(C)(C)C[C@H]23 (stereo partly shown) [TX63484] was tested. Which pIC50 did it give?
Answer: The pIC50 was 7.43.

Question: CC1(C)CC[C@]2(CO)CC[C@]3(C)[C@](O)([C@H](O)C=C4[C@@]5(C)C=C(C#N)C(=O)C(C)(C)[C@@H]5CC[C@]43C)[C@@H]2C1 [TX63489] was tested. Which pIC50 did it give?
Answer: The pIC50 was 7.21.

Question: How did the pIC50 turn out when CC1(C)CC[C@]2(CO)CC[C@@]3(C)[C@]4(C)CC[C@H]5C(C)(C)C(=O)C(C#N)=C[C@]5(C)C4=CC(=O)[C@]3(O)[C@@H]2C1 [TX63490] was run?
Answer: The pIC50 was 8.82.

Question: CC(C)C1O[C@]23C(=O)C=C4[C@@]5(C)C=C(C#N)C(=O)C(C)(C)[C@@H]5CC[C@@]4(C)[C@]2(C)CC[C@]12CCC(C)(C)C[C@H]23 (stereo partly shown) [TX63496] was tested. Which pIC50 did it give?
Answer: The pIC50 was 7.43.

Question: CC(=O)OC[C@]12CCC(C)(C)C[C@H]1[C@@]1(O)[C@H](OC(C)=O)C=C3[C@@]4(C)C=C(C#N)C(=O)C(C)(C)[C@@H]4CC[C@@]3(C)[C@]1(C)CC2 [TX63498] was tested. Which pIC50 did it give?
Answer: Its pIC50 is 7.62.

Question: With CC(=O)OC[C@]12CCC(C)(C)C[C@H]1[C@@]1(O)C(=O)C=C3[C@@]4(C)C=C(C#N)C(=O)C(C)(C)[C@@H]4CC[C@@]3(C)[C@]1(C)CC2 [TX63499] as the compound, how does the pIC50 read?
Answer: Its pIC50 is 8.68.

Question: With CC1(C)CC[C@]2(C(N)=O)CC[C@@]3(C)[C@]4(C)CC[C@H]5C(C)(C)C(=O)C(C#N)=C[C@]5(C)C4=CC(=O)[C@]3(O)[C@@H]2C1 [TX63530] as the compound, how does the pIC50 read?
Answer: Its pIC50 is 8.85.

Question: CCNC(=O)[C@]12CCC(C)(C)C[C@H]1[C@@]1(O)C(=O)C=C3[C@@]4(C)C=C(C#N)C(=O)C(C)(C)[C@@H]4CC[C@@]3(C)[C@]1(C)CC2 [TX63536] was tested. Which pIC50 did it give?
Answer: The pIC50 was 8.25.
